The results in this text go back to patent publication US20260285859A1, “BI-CYCLIC PYRIMIDINE COMPOUNDS, METHODS AND USES THEREOF” (Zeno Management, Inc., priority 2023, published 2026).

SMILES strings stand for the structures.

For one experiment, the target named is WEE1 (Homo sapiens, UniProt P30291). The experiment can be described thus: LanthaScreen Eu Kinase Binding Assay, WEE1. (In general: Time-resolved FRET reads energy transfer from a long-lived donor to a nearby acceptor.)
For the next experiment, the target named is T1, PKMYT1 (Homo sapiens, UniProt Q99640).
T1 sequence (Q99640 1-499): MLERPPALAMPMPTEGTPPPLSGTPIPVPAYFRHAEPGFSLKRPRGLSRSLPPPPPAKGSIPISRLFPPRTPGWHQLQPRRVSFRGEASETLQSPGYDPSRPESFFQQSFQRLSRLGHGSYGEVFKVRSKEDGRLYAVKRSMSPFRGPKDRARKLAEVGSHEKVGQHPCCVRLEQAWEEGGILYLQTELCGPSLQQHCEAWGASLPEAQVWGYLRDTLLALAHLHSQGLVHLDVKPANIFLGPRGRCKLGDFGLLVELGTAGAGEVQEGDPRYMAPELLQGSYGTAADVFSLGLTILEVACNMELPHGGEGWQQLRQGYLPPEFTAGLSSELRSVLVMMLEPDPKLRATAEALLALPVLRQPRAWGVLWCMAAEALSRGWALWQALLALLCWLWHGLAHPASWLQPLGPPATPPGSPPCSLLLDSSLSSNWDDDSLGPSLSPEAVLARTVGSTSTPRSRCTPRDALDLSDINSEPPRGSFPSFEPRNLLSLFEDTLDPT
The experiment can be described thus: LanthaScreen Eu Kinase Binding Assay, PKMYT1.

Sequence of WEE1 (P30291 whole entry): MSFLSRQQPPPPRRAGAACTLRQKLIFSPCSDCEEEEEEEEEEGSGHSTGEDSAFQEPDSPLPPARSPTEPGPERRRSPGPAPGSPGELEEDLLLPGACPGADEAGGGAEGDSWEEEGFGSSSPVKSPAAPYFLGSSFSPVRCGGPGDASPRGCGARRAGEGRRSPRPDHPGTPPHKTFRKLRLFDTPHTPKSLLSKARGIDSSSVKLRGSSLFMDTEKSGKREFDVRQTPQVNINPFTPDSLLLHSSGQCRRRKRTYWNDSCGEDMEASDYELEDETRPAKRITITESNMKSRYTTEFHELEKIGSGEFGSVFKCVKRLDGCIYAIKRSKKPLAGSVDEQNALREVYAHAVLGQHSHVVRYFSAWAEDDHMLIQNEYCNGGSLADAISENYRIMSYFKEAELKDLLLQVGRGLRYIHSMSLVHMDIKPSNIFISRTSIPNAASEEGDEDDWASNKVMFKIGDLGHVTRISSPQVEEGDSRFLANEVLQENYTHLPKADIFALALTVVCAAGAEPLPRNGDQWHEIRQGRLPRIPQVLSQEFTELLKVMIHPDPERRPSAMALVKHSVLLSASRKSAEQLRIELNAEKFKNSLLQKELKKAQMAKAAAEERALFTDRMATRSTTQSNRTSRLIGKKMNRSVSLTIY
Protocol for PKMYT1: (§1) Binding of the tracer to the kinase is detected using a europium-labeled anti-GST antibody, which binds to the fused tag on the kinase protein. […] Inhibitor binding to the kinase competes with tracer binding, resulting in loss of FRET from the donor/acceptor pairs.
(§2) Kinase/Antibody Mixtures and Tracer are diluted to a 2× and 4× working concentration, respectively in this same buffer. […] 0% displacement (no known inhibitor) and 100% displacement (highest concentration of known inhibitor) controls were included on each plate for maximum and minimum Emission Ratio determination, respectively. Dasatinib was used for both PKMYT1 and WEE1 as the known inhibitor.
(§3) IC50 determination was performed using a non-linear regression, variable slope (four parameter), inhibitor v. response equation (Prism 9.0).
Protocol for WEE1: as §1, §2, §3

By IC50 is commonly meant the concentration at which inhibition is half-maximal. A low value points to greater potency. Take `Cc1ccc(O)c(C)c1-c1nc(N(C)CCO)cc2c(N)ncnc12` (racemic) [Compound 47-A, 3-(4-amino-6-((2-hydroxyethyl)(methyl)amino)pyrido[3,4-d]pyrimidin-8-yl)-2,4-dimethylphenol]: the IC50 was greater than 1000 nM on WEE1 and 10 to 100 nM on PKMYT1.

As for `CNc1cc2c(N)ncnc2c(-c2c(C)ccc(O)c2C)n1` (single isomer, unassigned) [Compound 1-B], the values for the IC50 on WEE1 and on PKMYT1 were greater than 1000 nM and 10 to 100 nM, respectively.

Turning to `Cc1ccc(O)c(C)c1-c1nc(N2CCC(F)(F)C2)cc2c(N)ncnc12` (single isomer, unassigned) [Compound 2-B], the IC50 was 100 to 1000 nM at WEE1 and less than 10 nM on PKMYT1.

Take `Cc1ccc(O)c(C)c1-c1nc(N2CC[C@@H](O)C2)cc2c(N)ncnc12` (single isomer, unassigned) [Compound 3-B]: the IC50 is greater than 1000 nM at WEE1 and less than 10 nM at PKMYT1.

For `Cc1ccc(O)c(C)c1-c1nc(N2CC[C@H](O)C2)cc2c(N)ncnc12` (single isomer, unassigned) [Compound 4-B], the figures for the IC50 on WEE1 and at PKMYT1 were greater than 1000 nM and 10 to 100 nM, respectively.

In the case of `Cc1ccc(O)c(C)c1-c1nc(N2CC(F)(F)C2)cc2c(N)ncnc12` (single isomer, unassigned) [Compound 5-B], the IC50 on WEE1 is greater than 1000 nM; at PKMYT1, 10 to 100 nM.

As to `Cc1ccc(O)c(C)c1-c1nc(N2CCCC2)cc2c(N)ncnc12` (single isomer, unassigned) [Compound 6-B], the IC50 at WEE1 is greater than 1000 nM; at PKMYT1, less than 10 nM.

As for `Cc1ccc(O)c(C)c1-c1nc(N2CCOCC2)cc2c(N)ncnc12` (single isomer, unassigned) [Compound 7-B], the results for the IC50 on WEE1 and on PKMYT1 were greater than 1000 nM and less than 10 nM, respectively.

In the case of `Cc1ccc(O)c(C)c1-c1nc(N=S(C)(C)=O)cc2c(N)ncnc12` (single isomer, unassigned) [Compound 8-B], the IC50 on WEE1 was greater than 1000 nM; on PKMYT1, 10 to 100 nM.

On to `COCCN(C)c1cc2c(N)ncnc2c(-c2c(C)ccc(O)c2C)n1` (single isomer, unassigned) [Compound 9-B], for which the IC50 at WEE1 was greater than 1000 nM; at PKMYT1, 10 to 100 nM.

On to `Cc1ccc(O)c(C)c1-c1nc(N(C)C)cc2c(N)ncnc12` (single isomer, unassigned) [Compound 10-B], for which the IC50 is greater than 1000 nM at WEE1 and less than 10 nM at PKMYT1.

Take `Cc1ccc(O)c(C)c1-c1nc(N2CCC(O)CC2)cc2c(N)ncnc12` (single isomer, unassigned) [Compound 11-B]: the IC50 was greater than 1000 nM on WEE1 and less than 10 nM on PKMYT1.

With `Cc1ccc(O)c(C)c1-c1nc(N(C)C(C)C)cc2c(N)ncnc12` (single isomer, unassigned) [Compound 12-B], the IC50 at WEE1 is greater than 1000 nM; on PKMYT1, less than 10 nM.

For the compound `Cc1ccc(O)c(C)c1-c1nc(N2CC[C@](C)(O)C2)cc2c(N)ncnc12` (single isomer, unassigned) [Compound 13-E], the IC50 at WEE1 is greater than 1000 nM; on PKMYT1, 10 to 100 nM.

Turning to `Cc1ccc(O)c(C)c1-c1nc(N[C@H]2C[C@H](O)C2)cc2c(N)ncnc12` (single isomer, unassigned) [Compound 15-B], the IC50 is greater than 1000 nM at WEE1 and 10 to 100 nM on PKMYT1.

For `Cc1ccc(O)c(C)c1-c1nc(NS(C)(=O)=O)cc2c(N)ncnc12` (single isomer, unassigned) [Compound 16-B], the IC50 on WEE1 was greater than 1000 nM; at PKMYT1 it was 10 to 100 nM.

With `Cc1ccc(O)c(C)c1-c1nc(C2CC2)cc2c(N)ncnc12` (single isomer, unassigned) [Compound 18-B], the IC50 at WEE1 is greater than 1000 nM; at PKMYT1 it was less than 10 nM.

`Cc1ccc(O)c(C)c1-c1nc(-c2cnn(C)c2)cc2c(N)ncnc12` (single isomer, unassigned) [Compound 19-B]: the IC50 is 100 to 1000 nM on WEE1 and less than 10 nM at PKMYT1.

Turning to `Cc1ccc(O)c(C)c1-c1nc(N2CCCC(F)(F)C2)cc2c(N)ncnc12` (single isomer, unassigned) [Compound 20-B], the IC50 at WEE1 is 100 to 1000 nM; on PKMYT1 it was less than 10 nM.

Regarding `Cc1ccc(O)c(C)c1-c1nc(N(C)C2CC2)cc2c(N)ncnc12` (single isomer, unassigned) [Compound 21-B], the IC50 on WEE1 is 100 to 1000 nM; at PKMYT1, less than 10 nM.

`Cc1ccc(O)c(C)c1-c1nc(N2CC(C)(CO)C2)cc2c(N)ncnc12` (single isomer, unassigned) [Compound 22-B]: the IC50 at WEE1 was greater than 1000 nM; on PKMYT1, 10 to 100 nM.

In the case of `COC[C@H]1CCN(c2cc3c(N)ncnc3c(-c3c(C)ccc(O)c3C)n2)C1` (single isomer, unassigned) [Compound 23-B], the IC50 on WEE1 is greater than 1000 nM; at PKMYT1 it was less than 10 nM.

Consider `COC[C@@H]1CCN1c1cc2c(N)ncnc2c(-c2c(C)ccc(O)c2C)n1` (single isomer, unassigned) [Compound 24-B], for which the results for the IC50 on WEE1 and on PKMYT1 were greater than 1000 nM and 10 to 100 nM, respectively.

Take `COC[C@H]1CCN1c1cc2c(N)ncnc2c(-c2c(C)ccc(O)c2C)n1` (single isomer, unassigned) [Compound 25-B]: the IC50 on WEE1 was greater than 1000 nM; on PKMYT1, 10 to 100 nM.

Take `COC1CN(c2cc3c(N)ncnc3c(-c3c(C)ccc(O)c3C)n2)C1` (single isomer, unassigned) [Compound 26-B]: the IC50 on WEE1 is greater than 1000 nM; on PKMYT1 it was 10 to 100 nM.

On to `CCN(C)c1cc2c(N)ncnc2c(-c2c(C)ccc(O)c2C)n1` (single isomer, unassigned) [Compound 27-B], for which the values for the IC50 on WEE1 and on PKMYT1 were greater than 1000 nM and less than 10 nM, respectively.

In the case of `Cc1ccc(O)c(C)c1-c1nc(N(C)CC(F)F)cc2c(N)ncnc12` (single isomer, unassigned) [Compound 28-B], the IC50 on WEE1 was greater than 1000 nM; at PKMYT1, less than 10 nM.

Turning to `Cc1ccc(O)c(C)c1-c1nc(N(C)CC(F)(F)F)cc2c(N)ncnc12` (single isomer, unassigned) [Compound 29-B], the IC50 is greater than 1000 nM at WEE1 and less than 10 nM on PKMYT1.

As for `Cc1ccc(O)c(C)c1-c1nc(N(C)CC2CC2)cc2c(N)ncnc12` (single isomer, unassigned) [Compound 30-B], the IC50 at WEE1 is greater than 1000 nM; on PKMYT1, less than 10 nM.

`Cc1ccc(O)c(C)c1-c1nc(-c2ccc(F)cc2F)cc2c(N)ncnc12` (single isomer, unassigned) [Compound 31-B]: the IC50 at WEE1 was 100 to 1000 nM; on PKMYT1 it was less than 10 nM.

As for `C#Cc1cc2c(N)ncnc2c(-c2c(C)ccc(O)c2C)n1` (single isomer, unassigned) [Compound 33-B], the figures for the IC50 on WEE1 and on PKMYT1 were greater than 1000 nM and less than 10 nM, respectively.

In the case of `Cc1ccc(O)c(C)c1-c1nc(C(=O)N2CCCC2)cc2c(N)ncnc12` (single isomer, unassigned) [Compound 34-B], the IC50 at WEE1 was greater than 1000 nM; on PKMYT1, 100 to 1000 nM.

Consider `Cc1ccc(O)c(C)c1-c1nc(CC(=O)N2CCOCC2)cc2c(N)ncnc12` (single isomer, unassigned) [Compound 35-B], for which the figures for the IC50 at WEE1 and at PKMYT1 were greater than 1000 nM and 100 to 1000 nM, respectively.

Regarding `CCN(c1cc2c(N)ncnc2c(-c2c(C)ccc(O)c2C)n1)C1CC1` (single isomer, unassigned) [Compound 36-B], the IC50 at WEE1 was 100 to 1000 nM; on PKMYT1 it was less than 10 nM.

With `Cc1ccc(O)c(C)c1-c1nc(N(C)C2CCC2)cc2c(N)ncnc12` (single isomer, unassigned) [Compound 37-B], the IC50 at WEE1 was 100 to 1000 nM; on PKMYT1, less than 10 nM.

Regarding `Cc1ccc(O)c(C)c1-c1nc(N2CC[C@]3(CCO3)C2)cc2c(N)ncnc12` (single isomer, unassigned) [Compound 38-B], the IC50 on WEE1 is greater than 1000 nM; on PKMYT1, less than 10 nM.

`Cc1ccc(O)c(C)c1-c1nc(C(F)(F)F)cc2c(N)ncnc12` (single isomer, unassigned) [Compound 39-B] displayed an IC50 at PKMYT1 of 10 to 100 nM.

`Cc1ccc(O)c(C)c1-c1nc(C2CCC2)cc2c(N)ncnc12` (single isomer, unassigned) [Compound 40-B]: the IC50 on WEE1 was greater than 1000 nM; on PKMYT1, less than 10 nM.

For the compound `Cc1ccc(O)c(C)c1-c1nc(N(C)CCC#N)cc2c(N)ncnc12` (single isomer, unassigned) [Compound 41-B], the values for the IC50 at WEE1 and on PKMYT1 were greater than 1000 nM and less than 10 nM, respectively.

Take `Cc1ccc(O)c(C)c1-c1nc(N(C)C2(C(F)(F)F)CC2)cc2c(N)ncnc12` (single isomer, unassigned) [Compound 42-B]: the IC50 at WEE1 is 100 to 1000 nM; at PKMYT1 it was less than 10 nM.

Consider `Cc1ccc(O)c(C)c1-c1nc(N2CCCC2=O)cc2c(N)ncnc12` (single isomer, unassigned) [Compound 43-B], for which the IC50 at WEE1 is greater than 1000 nM; on PKMYT1, less than 10 nM.

With `Cc1ccc(O)c(C)c1-c1nc(N(C)C2CCCC2)cc2c(N)ncnc12` (single isomer, unassigned) [Compound 44-B], the IC50 was 100 to 1000 nM on WEE1 and less than 10 nM on PKMYT1.

In the case of `CC[C@H](C)N(C)c1cc2c(N)ncnc2c(-c2c(C)ccc(O)c2C)n1` (single isomer, unassigned) [Compound 45-B], the results for the IC50 at WEE1 and on PKMYT1 were greater than 1000 nM and 10 to 100 nM, respectively.

At WEE1, `Cc1cc2c(C(N)=O)c(N)n(-c3c(C)ccc(O)c3C)c2nc1C` [RP-6306, Lunresertib, reference compound] came in with an IC50 of 10 to 100 nM.
